Eight compounds from US20250115633A1, “PHOTODYNAMIC THERAPY AND DIAGNOSIS” (RMW CHO Group Limited, priority 2021, published 2025) can be followed below.

Data set [1] has as its system SKOV3 ovarian cancer cells. Put plainly: Inherent cytotoxicity (dark toxicity) in SKOV3 cells (AlamarBlue viability). Type of data set: cell-based, Human. How it is done:
(§1) Samples were stored at 4° C. protected from light.
(§2) All data are shown as mean±SD (where appropriate).
Untreated cells were used as a control. […] All measurements were made in quadruplicate.
(In general: The colour change of resazurin is a common sign of viable cells or microbes.)

The subject of data set [2] is SKOV3 ovarian cancer cells. Put plainly: Phototoxicity in SKOV3 cells after 660 nm light activation (AlamarBlue viability). Type of data set: cell-based, Human. Conditions: read-out: Phototoxicity μM (IC90). How it is done:
as §1, §2
Media was then replaced with fresh media containing AlamarBlue, and % viable cells remaining assessed as above. Controls included cells treated with chlorin e4 analogues but not activated by laser light; cells without chlorin e4 analogue treatment but with laser light; and untreated controls. All measurements were made in quadruplicate.

Setting [3] is: SKOV3, 24 hours incubation, no light activation.
[4] abbreviates: Homo sapiens, SK-OV-3, light or radiation study.
Setting [5] is: SKOV3, 24 hours uptake, 660 nm, 50 mW/cm^2 for 5 mins (total 15 J/cm^2), * phototoxicity measured by LED.

Where a name gives a salt, the structure may show the parent alone. Read-outs that look alike come from different tables or passages of the source.

Turning to `C=Cc1c(C)c2cc3nc(c(CC(=O)N[C@@H](CC(=O)O)C(=O)O)c4[nH]c(cc5nc(cc1[nH]2)C(C)=C5CC)c(C)c4C(=O)O)[C@@H](CCC(=O)O)[C@@H]3C` [Talaporfin sodium, reference compound], in data set [1] (setting [3]), the “Dark toxicity μM (IC10)” value came out at 11.10 µM.

By IC90 is commonly meant the point of the concentration-response curve where the effect stands at 90%. `CCC1=C(C)c2cc3[nH]c(cc4nc(c(C)c5[nH]c(cc1n2)c(C)c5C(=O)OC)[C@@H](CCC(=O)OC)[C@@H]4C)c(C)c3COC(=O)NCCC[P+](c1ccccc1)(c1ccccc1)c1ccccc1` [Compound 5, chlorin e4 dimethyl ester 13-(N-(3-triphenylphosphoniumpropyl)bromide)carbamate]: the IC90 in data set [2] (setting [4]) stood at 0.0029 µM. The “Dark toxicity μM (IC10)” value in data set [1] (setting [3]) is 3.046 µM.

Regarding `CCC1=C(C)c2cc3[nH]c(cc4nc(c(C)c5[nH]c(cc1n2)c(C)c5C(=O)OC)[C@@H](CCC(=O)OC)[C@@H]4C)c(C)c3COC(=O)NCCCOCCC[P+](c1ccccc1)(c1ccccc1)c1ccccc1` [Compound 4, chlorin e4 dimethyl ester 13-(N-(3-(3-triphenylphosphoniumpropoxy)propyl)chloride)carbamate], in data set [2] (setting [4]), the IC90 worked out at 0.0024 µM. The “Dark toxicity μM (IC10)” value in data set [1] (setting [3]) came out at 3.881 µM.

As for “chlorin e4 dimethyl ester 13-(6-(triphenylphosphonium bromide)hexyl)carbamate [Compound 3]”, the IC90 in data set [2] (setting [5]) came to 0.0041 µM. The “Dark toxicity μM (IC10)” value in data set [1] (setting [3]) was determined as 0.838 µM.

With “chlorin e4 13-hydroxymethyl dimethyl ester”, the IC90 in data set [2] (setting [5]) was 0.325 µM. In addition, the “Dark toxicity μM (IC10)” value in data set [1] worked out at 42.830 µM.

With `CCC1=C(C)c2cc3[nH]c(cc4nc(c(C)c5[nH]c(cc1n2)c(C)c5C(=O)OC)[C@@H](CCC(=O)OC)[C@@H]4C)c(C)c3C(C)OCCCS[C@@H]1O[C@H](CO)[C@@H](O)[C@H](O)[C@H]1O` (stereo partly drawn) [Compound 1, methyl (7S,8S)-18-ethyl-7-(3-methoxy-3-oxopropyl)-2,5,8,12,17-pentamethyl-13-(1-(3-(((2S,3R,4S,5S,6R)-3,4,5-trihydroxy-6-(hydroxymethyl)tetrahydro-2H-pyran-2-yl)thio)propoxy)ethyl)-7H,8H-porphyrin-3-carboxylate], the IC90 in data set [2] (setting [4]) worked out at 0.06 µM. Besides, the “Dark toxicity μM (IC10)” value in data set [1] (setting [3]) was found to be 8.64 µM.

With `C=Cc1c(C)c2cc3nc(c(C)c4[nH]c(cc5nc(cc1[nH]2)C(C)=C5CC)c(C)c4C(=O)O)[C@@H](CCC(=O)O)[C@@H]3C` [Chlorin e4 disodium, Chlorin e4 Disodium Salt, reference compound], the IC90 in data set [2] (SKOV3, 24 hours uptake, 660 nm, 50 mW/cm^2 for 5 mins (total 15 J/cm^2), values not marked * (laser)) worked out at 21.3 µM. In addition, in data set [1], the “Dark toxicity μM (IC10)” value came out at 40.23 µM.

Regarding `CCC1=C(C)c2cc3[nH]c(cc4nc(c(C)c5[nH]c(cc1n2)c(C)c5C(=O)OC)[C@@H](CCC(=O)OC)[C@@H]4C)c(C)c3COC(=O)NCC[P+](c1ccccc1)(c1ccccc1)c1ccccc1` [Compound 6, chlorin e4 dimethyl ester 13-(N-(2-triphenylphosphoniumethyl)bromide)carbamate], in data set [2] (Homo sapiens, SK-OV-3, light or radiation study, SKOV3, 24 hours uptake, 660 nm, 50 mW/cm^2 for 5 mins (total 15 J/cm^2), * phototoxicity measured by LED), the IC90 is 0.0018 µM. Besides, in data set [1] (setting [3]), the “Dark toxicity μM (IC10)” value is 2.281 µM.
